From PubChem BioAssay AID328 (DTP/NCI, 2004) come the findings set out here.

The structures appear in SMILES notation. Where “and” joins values, the source holds several entries; their conditions need not be identical. Equal entries are not always repeated. Inconclusive results and toxic doses are left out.

In the test the test system is BDF1 mice, P388 leukemia ip, median survival T/C. Nature of the test: NCI In Vivo Anticancer Drug Screen. Data for tumor model P388 Leukemia (intraperitoneal) in B6D2F1 (BDF1) mice. Conditions: endpoint: median survival time, higher = longer survival. An outline of the steps: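 Mice carrying the transplantable tumour receive compound or vehicle. Survival is followed in each arm, and the treated measure is divided by the vehicle measure.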

Where [1] appears, read: dose: 100.0 mg/kg/injection, schedule: Q01DX009 (ip), vehicle: saline with Tween-80.
The mark [2] stands for this setting: dose: 100.0 mg/kg/injection, schedule: Q04DX003 (ip), vehicle: saline with Tween-80.
Where [3] appears, read: dose: 200.0 mg/kg/injection, schedule: Q04DX003 (ip), vehicle: saline with Tween-80.
The mark [4] stands for this setting: dose: 400.0 mg/kg/injection, schedule: Q04DX003 (ip), vehicle: saline with Tween-80.
[5] abbreviates: dose: 3.13 mg/kg/injection, schedule: Q01DX009 (ip), vehicle: saline.
The mark [6] stands for this setting: dose: 6.25 mg/kg/injection, schedule: Q01DX009 (ip), vehicle: saline.
[7] abbreviates: dose: 50.0 mg/kg/injection, schedule: Q01DX009 (ip), vehicle: saline with Tween-80.

Take `COc1cc(C2c3cc4c(cc3C(O)C(CO)C2CO)OCO4)cc(OC)c1OC` (stereo unspecified): the T/C is 176 % of control (dose: 17.5 mg/kg/injection, schedule: Q01DX009 (ip), vehicle: Klucel (hydroxypropylcellulose) (HPC)); 209 % of control (dose: 35.0 mg/kg/injection, schedule: Q01DX009 (ip), vehicle: Klucel (hydroxypropylcellulose) (HPC)); 109 % of control (dose: 37.5 mg/kg/injection, schedule: Q04DX003 (ip), vehicle: saline sonified); 150 % of control (dose: 44.0 mg/kg/injection, schedule: Q01DX009 (ip), vehicle: saline with Tween-80); 100 % of control (dose: 44.0 mg/kg/injection, schedule: Q04DX003 (ip), vehicle: saline sonified); 150 % of control (dose: 66.0 mg/kg/injection, schedule: Q01DX009 (ip), vehicle: saline with Tween-80). The T/C reads like this: (dose: 66.0 mg/kg/injection, schedule: Q04DX003 (ip), vehicle: saline sonified) 105 % of control; (dose: 70.0 mg/kg/injection, schedule: Q01DX009 (ip), vehicle: Klucel (hydroxypropylcellulose) (HPC)) 228 % of control and 159 % of control; (dose: 75.0 mg/kg/injection, schedule: Q04DX003 (ip), vehicle: saline sonified) 122 % of control; under setting [1], 209 % of control; (dose: 100.0 mg/kg/injection, schedule: Q04DX003 (ip), vehicle: saline sonified) 110 % of control; under setting [2], 160 % of control and 183 % of control. The T/C reads like this: (dose: 140.0 mg/kg/injection, schedule: Q01DX009 (ip), vehicle: Klucel (hydroxypropylcellulose) (HPC)) 172 % of control; (dose: 150.0 mg/kg/injection, schedule: Q01DX009 (ip), vehicle: saline with Tween-80) 159 % of control; (dose: 150.0 mg/kg/injection, schedule: Q04DX003 (ip), vehicle: saline sonified) 110 % of control; (dose: 150.0 mg/kg/injection, schedule: Q04DX003 (ip), vehicle: saline with Tween-80) 160 % of control; under setting [3], 172 % of control and 191 % of control; (dose: 225.0 mg/kg/injection, schedule: Q04DX003 (ip), vehicle: saline with Tween-80) 190 % of control. Further, the T/C is, setting by setting: (dose: 300.0 mg/kg/injection, schedule: Q04DX003 (ip), vehicle: saline sonified) 200 % of control; under setting [4], 200 % of control and 204 % of control.
On to `COC(CBr)OC`, for which the T/C reads like this: (dose: 10.0 mg/kg/injection, schedule: Q01DX009 (ip), vehicle: saline) 102 % of control; (dose: 20.0 mg/kg/injection, schedule: Q01DX009 (ip), vehicle: saline) 98 % of control; (dose: 40.0 mg/kg/injection, schedule: Q01DX009 (ip), vehicle: saline) 98 % of control.
In the case of `Oc1c(Br)ccc2c(O)c(Br)ccc12`, the T/C reads like this: (dose: 132.0 mg/kg/injection, schedule: Q04DX003 (ip), vehicle: saline with Tween-80) 109 % of control; under setting [3], 114 % of control; (dose: 300.0 mg/kg/injection, schedule: Q04DX003 (ip), vehicle: saline with Tween-80) 95 % of control.
Consider `Nc1nc2nc(N=Nc3ccccc3)[nH]c2c(=O)[nH]1`, for which the T/C (dose: 50.0 mg/kg/injection, schedule: Q01DX005 (ip), vehicle: saline with Tween-80) was 100 % of control; the T/C (dose: 100.0 mg/kg/injection, schedule: Q01DX005 (ip), vehicle: saline with Tween-80) is 91 % of control; the T/C (dose: 200.0 mg/kg/injection, schedule: Q01DX005 (ip), vehicle: saline with Tween-80) was 110 % of control.
With `Cc1ccc(CNc2ccc(C)c(Cl)c2)cc1`, the T/C is 104 % of control (dose: 100.0 mg/kg/injection, schedule: Q01DX009 (ip), vehicle: other); 113 % of control (dose: 200.0 mg/kg/injection, schedule: Q01DX009 (ip), vehicle: other); 118 % of control (dose: 400.0 mg/kg/injection, schedule: Q01DX009 (ip), vehicle: other).
For `CCOC(=O)NC1CC2(C=CN1C(=O)OCC)CCCCC2` (stereo unspecified), the T/C reads like this: (dose: 37.5 mg/kg/injection, schedule: Q04DX003 (ip), vehicle: Klucel (hydroxypropylcellulose) (HPC)) 113 % of control; (dose: 75.0 mg/kg/injection, schedule: Q04DX003 (ip), vehicle: Klucel (hydroxypropylcellulose) (HPC)) 118 % of control; (dose: 150.0 mg/kg/injection, schedule: Q04DX003 (ip), vehicle: Klucel (hydroxypropylcellulose) (HPC)) 112 % of control.
Consider `CCOC(=O)C(Br)(C(=O)OCC)C(c1ccccc1)c1ccccc1`, for which the T/C under setting [1] was 95 % of control and the T/C (dose: 400.0 mg/kg/injection, schedule: Q01DX009 (ip), vehicle: saline with Tween-80) was 109 % of control.
`COC1(OC)C2CCC1C(Cl)=C2Cl`: the T/C is 102 % of control under setting [5]; 100 % of control under setting [6]; 109 % of control (dose: 25.0 mg/kg/injection, schedule: Q01DX009 (ip), vehicle: saline).
As to `COc1ccc(-c2c[se]c(=S)s2)cc1`, the T/C by setting is: (dose: 25.0 mg/kg/injection, schedule: Q01DX009 (ip), vehicle: saline with Tween-80) 99 % of control; under setting [7], 94 % of control; under setting [1], 87 % of control.
For the compound `O=C(O)C(Cc1ccccc1)N=Cc1c(O)ccc2ccccc12` (stereo unspecified), the T/C by setting is: under setting [2], 105 % of control; under setting [3], 114 % of control; under setting [4], 89 % of control.
With `CCOC(=O)C(Br)C(Br)C(=O)OCC` (stereo unspecified), the T/C is, setting by setting: under setting [7], 89 % of control; under setting [1], 104 % of control.
Consider `NC(=O)c1ccc(NC(=O)/C=C/C(=O)Nc2ccc(C(N)=O)cn2)nc1`, for which the T/C was 115 % of control (dose: 0.08 mg/kg/injection, schedule: Q01DX009 (ip), vehicle: saline); 120 % of control (dose: 0.17 mg/kg/injection, schedule: Q01DX009 (ip), vehicle: saline); 105 % of control (dose: 0.35 mg/kg/injection, schedule: Q01DX009 (ip), vehicle: saline); 103 % of control (dose: 0.7 mg/kg/injection, schedule: Q01DX009 (ip), vehicle: saline); 107 % of control (dose: 1.4 mg/kg/injection, schedule: Q01DX009 (ip), vehicle: saline); 113 % of control (dose: 1.65 mg/kg/injection, schedule: Q01DX009 (ip), vehicle: saline with Tween-80). Moreover, the T/C was 117 % of control (dose: 2.5 mg/kg/injection, schedule: Q01DX009 (ip), vehicle: saline with Tween-80); 94 % of control (dose: 3.75 mg/kg/injection, schedule: Q01DX009 (ip), vehicle: saline with Tween-80); 86 % of control (dose: 4.5 mg/kg/injection, schedule: Q04DX003 (ip), vehicle: saline); 104 % of control (dose: 5.62 mg/kg/injection, schedule: Q01DX009 (ip), vehicle: saline); 108 % of control (dose: 9.0 mg/kg/injection, schedule: Q04DX003 (ip), vehicle: saline); 100 % of control (dose: 18.0 mg/kg/injection, schedule: Q04DX003 (ip), vehicle: saline). Further, the T/C is 112 % of control (dose: 26.0 mg/kg/injection, schedule: Q04DX003 (ip), vehicle: saline) and 108 % of control (dose: 40.0 mg/kg/injection, schedule: Q04DX003 (ip), vehicle: saline).
Take `COC(=O)C12Oc3ccc(-c4ccc5c(c4O)C(O)=C4C(=O)CC(C)C(O)C4(C(=O)OC)O5)c(O)c3C(O)=C1C(=O)CC(C)C2O` (stereo unspecified): the T/C by setting is: (dose: 0.39 mg/kg/injection, schedule: Q01DX009 (ip), vehicle: saline with Tween-80) 100 % of control; (dose: 0.78 mg/kg/injection, schedule: Q01DX009 (ip), vehicle: saline with Tween-80) 109 % of control; (dose: 0.78 mg/kg/injection, schedule: Q01DX009 (ip), vehicle: saline) 100 % of control; (dose: 1.56 mg/kg/injection, schedule: Q01DX009 (ip), vehicle: saline with Tween-80) 104 % of control and 109 % of control; (dose: 3.13 mg/kg/injection, schedule: Q01DX009 (ip), vehicle: saline with Tween-80) 104 % of control and 109 % of control; under setting [5], 93 % of control. Further, for the setting “dose: 6.25 mg/kg/injection, schedule: Q01DX009 (ip), vehicle: saline with Tween-80”, the T/C was 101 % of control.
On to `Nc1c(O)nc[nH]c1=O`, for which the T/C is 95 % of control (dose: 1.56 mg/kg/injection, schedule: Q01DX009 (ip), vehicle: saline); 109 % of control and 100 % of control under setting [5]; 95 % of control (dose: 3.13 mg/kg/injection, schedule: Q04DX003 (ip), vehicle: saline); 100 % of control under setting [6]; 86 % of control and 100 % of control (dose: 6.25 mg/kg/injection, schedule: Q04DX003 (ip), vehicle: saline); 100 % of control (dose: 12.5 mg/kg/injection, schedule: Q01DX009 (ip), vehicle: saline). For the same compound, under “dose: 12.5 mg/kg/injection, schedule: Q04DX003 (ip), vehicle: saline”, the T/C is 100 % of control.
